Reference: patent US12102625B2, “Solid forms of FXR agonists” (Gilead Sciences, Inc., priority 2019, dated 2024)
Where a name gives a salt, the structure may show the parent alone. Each block holds one compound with its values, some of them ahead of it.

How the values were obtained:
[1] = Solid-form physical stability at ambient conditions / humidity; type: physicochemical
[2] = Slurry of the tromethamine salt in aqueous media (disproportionation); type: physicochemical

time to full conversion to Formula I tromethamine salt hydrate I ([1]; ambient conditions, depending on % RH): ≤ 1 h
Compound: O=C(O)c1ccnc(N2CC(O)(c3ccc(OCc4c(-c5c(Cl)cccc5Cl)noc4C4CC4)cc3Cl)C2)c1

Compound: O=C(O)c1ccnc(N2CC(O)(c3ccc(OCc4c(-c5c(Cl)cccc5Cl)noc4C4CC4)cc3Cl)C2)c1 [Formula I tromethamine salt Form II]
moisture absorption and form conversion ([1]; about >20% RH): rapidly absorbs moisture at about >20% RH and converts to Formula I tromethamine salt hydrate II

Compound: O=C(O)c1ccnc(N2CC(O)(c3ccc(OCc4c(-c5c(Cl)cccc5Cl)noc4C4CC4)cc3Cl)C2)c1 [Formula I tromethamine salt MTBE solvate]
solid form conversion at ambient conditions ([1]; ambient conditions): converted to disordered material at ambient conditions

Compound: O=C(O)c1ccnc(N2CC(O)(c3ccc(OCc4c(-c5c(Cl)cccc5Cl)noc4C4CC4)cc3Cl)C2)c1 [Formula I tromethamine salt ethanol solvate]
solid form conversion at ambient conditions ([1]; ambient conditions): converted to Formula I tromethamine salt hydrate I at ambient conditions

Compound: O=C(O)c1ccnc(N2CC(O)(c3ccc(OCc4c(-c5c(Cl)cccc5Cl)noc4C4CC4)cc3Cl)C2)c1 [Formula I tromethamine salt methanol solvate I]
solid form conversion at ambient conditions ([1]; ambient conditions): loses methanol very rapidly at ambient conditions and converts to tromethamine salt methanol solvate III

salt stability (disproportionation to zwitterion Form II) ([2]; MeOH/water (0.4-0.6 water activity)): disproportionation | salt stability in slurry (disproportionation to zwitterion hydrate) ([2]; slurry in water): disproportionation of the salt
Compound: O=C(O)c1ccnc(N2CC(O)(c3ccc(OCc4c(-c5c(Cl)cccc5Cl)noc4C4CC4)cc3Cl)C2)c1 [Formula I tromethamine salt]
